In the experiment the target is T1, Endothelial lipase (Homo sapiens, UniProt Q9Y5X9).
T1 sequence (Q9Y5X9 whole entry): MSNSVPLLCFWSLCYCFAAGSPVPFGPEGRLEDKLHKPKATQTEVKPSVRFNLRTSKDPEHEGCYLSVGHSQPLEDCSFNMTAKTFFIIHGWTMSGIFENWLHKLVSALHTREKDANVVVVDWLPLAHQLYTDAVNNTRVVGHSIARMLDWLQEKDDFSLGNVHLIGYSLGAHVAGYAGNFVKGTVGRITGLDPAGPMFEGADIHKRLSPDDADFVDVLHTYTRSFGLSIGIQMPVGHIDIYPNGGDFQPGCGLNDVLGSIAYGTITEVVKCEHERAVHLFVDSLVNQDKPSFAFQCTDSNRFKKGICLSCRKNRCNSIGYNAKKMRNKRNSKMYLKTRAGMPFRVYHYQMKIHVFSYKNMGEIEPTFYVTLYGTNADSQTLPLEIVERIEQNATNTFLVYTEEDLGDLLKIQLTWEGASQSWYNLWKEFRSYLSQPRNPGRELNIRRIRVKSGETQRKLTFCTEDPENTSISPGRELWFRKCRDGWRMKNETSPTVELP
Kind of experiment: Enzyme Assay: The enzymatic assay was measured using white, opaque 96-well half area plates. Each well contained 60 uL of assay buffer (50 mM HEPES pH 8.0, 50 mM NaCl and 1 mM CaCl2) and 2 ul of a DMSO solution containing compound of interest. Conditioned media obtained from HT-1080 cells, which were transformed by RAGE technology (Athersys) to overexpress endogenous EL, was added and the reaction was allowed to incubate for 20 min at 37° C. with gentle agitation. The reaction was started by the addition of 20 uL of a 1:4 dilution of vesicles. The final total reaction volume was 100 uL. The reaction rates were measured on a Gemini plate reader with an excitation wavelength of 488 nm and a emission of 530 nm. Readings were taken every 20 seconds for 10 min with agitation between each reading. It counts as cell-based.
In turn, `O=C(NCCCc1ccc(Cl)c(Cl)c1)C1=C(O)C(=O)N(Cc2ccccc2C(=O)O)C1` registered an IC50 of 488 nM.

`CN1CC(C(=O)NCCCc2ccccc2C(F)(F)F)=C(O)C1=O` gave an IC50 of 436 nM.

Regarding `CC1C(C(=O)NCCCc2ccc(Cl)c(Cl)c2)=C(O)C(=O)N1CCc1ccc(F)cc1` (stereo not drawn), inhibition was half-maximal at 486 nM (IC50).

For the origin of these results see ChEMBL document CHEMBL3886502, “Pyrrolinone carboxamide compounds useful as endothelial lipase inhibitors” (2016).
